Experimental findings from patent US7348330B2, “1-azabicyclo [2,2,2] octan-3-one derivatives” (Aprea AB, priority 2000, dated 2008) are described below.

Each structure is given as a SMILES string.

Series [1] concerns the target T1, GST-His-175 mutant p53 protein (Homo sapiens, UniProt P04637, R175H).
T1 construct: made in house
In words: Band shift assay. The class given is biochemical. As for the experimental part: FIG. 7A Lane 1-3, GST-His-175 mutant p53 is unable to bind DNA. […] PAb421 antibody was added to all reaction mixtures. […] Monoclonal antibody PAb421 was added to the reaction mixtures in lanes 2-8; PAb1801 was, added to the reaction mixtures in lanes 9-15.
(§1) The GST-p53 proteins were prepared as described (Selivanova et al., 1997). Band shift assays were performed in binding buffer containing 100 mM HEPES pH 7.5, 50 mM KCl , 1 mg/ml BSA, 0.1% Triton X-100, 2 mM MgCl2 and 1 mM DTT essentially as in (Selivanova et al., 1996).
Substitution of arginin at position 175 causes a gross unfolding of the DNA binding core domain of p53.

In series [2] the target is T2, endogenous Trp-282 mutant p53 (Homo sapiens, UniProt P04637, R282W).
T2 construct: endogenous Trp-282 mutant p53 in cell extracts from Burkitt lymphoma BL-60 cells; endogenous in cells; host or cells: Burkitt lymphoma BL-60 cells (cell extract)
In words: Band shift assay, BL-60 cell extracts. Type of series: biochemical. To be noted: cell extracts from Burkitt lymphoma BL-60 cells.

The target of series [3] is T3, Phe-176 mutant p53 protein (Homo sapiens, UniProt P04637, C176F).
T3 construct: as a source for endogenous p53 protein; endogenous in cells; host or cells: KRC/Y renal carcinoma cells (cell extract)
The experiment in a line: Band shift assay, KRC/Y cells. The class given is biochemical. As for the experimental part:
as §1

A short description of series [4]: Toxicity assessment in SCID mice. The class given is in vivo. How it is done: All animal studies were approved by the local animal ethical committee and animal care was in accordance with institutional guidelines. For toxicity assessment, 12 SCID mice (average weight 25 g) were divided in 4 groups. […] Control animals were injected with PBS. We measured weights of the mice for 1 month after the last injection. […] After 3 days the mice were divided into 4 groups. […] Injections were performed twice daily for 3 days. Tumor volume was measured during 2 months.
In the untreated control group, the average tumor volume after 59 days was 555.7±284 mm^3 (means±SE, n=3).

Take `CCC(=O)OCN1C(=O)C=CC1=O` [MIRA-1]: the results for the “restoration of specific DNA binding” value in series [1] and in series [3] were “able to restore” and “not capable of restoring”, respectively. Moreover, the “restoration of sequence-specific DNA binding” value in series [2] is “able to restore”.
Turning to `O=C1C2CCN(CC2)C1(CO)CO` [PRIMA-1, 2,2-bis(hydroxymethyl)-1-azabicyclo[2,2,2]octan-3-one], the “average weight of mice” value in series [4] (100 mg/kg i.v., after one month of observation, means±SE) is 20 ± 0.2 g. Further, the “changes in behavior or weight” value in series [4] (intravenous injections, 1, 10 and 100 mg/kg daily for 5 days) is recorded as “did not cause any obvious changes in behavior or weight”.
